Reference: ChEMBL document CHEMBL2177079, “Free-Wilson and structural approaches to co-optimizing human and rodent isoform potency for 11β-hydroxysteroid dehydrogenase type 1 (11β-HSD1) inhibitors” (J Med Chem, 2012)
pIC50: −log10 of the molar value. The source made the active and inactive calls. The calls are words filed in the database; no cut-off is given here.

What was measured:
[1] = Volume of distribution at steady state in female beagle dog at 0.6 umol/kg, iv; assay type: ADME, organism-based, Canis lupus familiaris; details: in vivo, read-out: Vdss
[2] = Volume of distribution at steady state in male beagle dog at 0.6 umol/kg, iv; assay type: ADME, organism-based, Canis lupus familiaris; details: in vivo, read-out: Vdss
[3] = Half life in male beagle dog at 0.6 umol/kg, iv; assay type: ADME, organism-based, Canis lupus familiaris; details: in vivo
[4] = Half life in female beagle dog at 0.6 umol/kg, iv; assay type: ADME, organism-based, Canis lupus familiaris; details: in vivo
[5] = Clearance in female beagle dog at 0.6 umol/kg, iv; assay type: ADME, organism-based, Canis lupus familiaris; details: in vivo
[6] = Clearance in male beagle dog at 0.6 umol/kg, iv; assay type: ADME, organism-based, Canis lupus familiaris; details: in vivo
[7] = Oral bioavailability in Han Wistar rat at 7 umol/kg; assay type: ADME, organism-based; details: in vivo
[8] = AUC in Han Wistar rat at 7 umol/kg, po; assay type: ADME, organism-based, Plasma; details: whole blood
[9] = system: Mus musculus; assay: Reduction in body weight in obese mouse at 50 mg/kg/day, po; assay type: functional, organism-based
[10] = system: Mus musculus; assay: Reduction in fasting plasma glucose levels in obese mouse at 50 mg/kg/day, po; assay type: functional, organism-based
[11] = system: Mus musculus; assay: Reduction in body weight in obese mouse at 300 mg/kg/day, po; assay type: functional, organism-based
[12] = system: Mus musculus; assay: Reduction in fasting plasma glucose levels in obese mouse at 300 mg/kg/day, po; assay type: functional, organism-based
[13] = system: Mus musculus; assay: Inhibition of 11beta-HSD1 in po dosed C57 mouse epididymal adipose tissue assessed as conversion of [3H]cortisone to [3H]cortisol; assay type: functional, organism-based
[14] = Fraction unbound in human plasma; assay type: ADME, cell-free
[15] = Intrinsic clearance in human hepatocytes measured per 10^6 cells; assay type: ADME, cell-based, Hepatocyte; details: read-out: CLH
[16] = Intrinsic clearance in female beagle dog hepatocytes measured per 10^6 cells; assay type: ADME, cell-based, Canis lupus familiaris, Hepatocyte; details: read-out: CLH
[17] = Intrinsic clearance in male beagle dog hepatocytes measured per 10^6 cells; assay type: ADME, cell-based, Canis lupus familiaris, Hepatocyte; details: read-out: CLH
[18] = Intrinsic clearance in mouse hepatocytes measured per 10^6 cells; assay type: ADME, cell-based, Hepatocyte; details: read-out: CLH
[19] = Intrinsic clearance in Han Wistar rat hepatocytes measured per 10^6 cells; assay type: ADME, cell-based, Hepatocyte; details: read-out: CLH
[20] = Fraction unbound in female beagle dog plasma; assay type: ADME, cell-free, Canis lupus familiaris
[21] = Fraction unbound in Han Wistar rat plasma; assay type: ADME, cell-free
[22] = Fraction unbound in male beagle dog plasma; assay type: ADME, cell-free, Canis lupus familiaris
[23] = Oral bioavailability in female beagle dog at 1.2 umol/kg; assay type: ADME, organism-based, Canis lupus familiaris; details: in vivo
[24] = Fraction unbound in mouse plasma; assay type: ADME, cell-free
[25] = Oral bioavailability in male beagle dog at 1.2 umol/kg; assay type: ADME, organism-based, Canis lupus familiaris; details: in vivo
[26] = AUC in female beagle dog at 1.2 umol/kg, po; assay type: ADME, organism-based, Canis lupus familiaris; details: plasma
[27] = Oral bioavailability in mouse at 11.7 umol/kg; assay type: ADME, organism-based; details: in vivo
[28] = AUC in male beagle dog at 1.2 umol/kg, po; assay type: ADME, organism-based, Canis lupus familiaris; details: plasma
[29] = AUC in mouse at 11.7 umol/kg, po; assay type: ADME, organism-based, Plasma; details: whole blood
[30] = Volume of distribution at steady state in mouse at 4.7 umol/kg, iv; assay type: ADME, organism-based; details: in vivo, read-out: Vdss
[31] = Volume of distribution at steady state in Han Wistar rat at 4.7 umol/kg, iv; assay type: ADME, organism-based; details: in vivo, read-out: Vdss
[32] = Half life in Han Wistar rat at 4.7 umol/kg, iv; assay type: ADME, organism-based; details: in vivo
[33] = Half life in mouse at 4.7 umol/kg, iv; assay type: ADME, organism-based; details: in vivo
[34] = Clearance in Han Wistar rat at 4.7 umol/kg, iv; assay type: ADME, organism-based; details: in vivo
[35] = Clearance in mouse at 4.7 umol/kg, iv; assay type: ADME, organism-based; details: in vivo
[36] = target: T1, 17-beta-hydroxysteroid dehydrogenase type 3 (Homo sapiens) (UniProt P37058); assay: Inhibition of human 17beta-HSD3 at 10 uM by HPLC assay
T1 sequence (whole entry): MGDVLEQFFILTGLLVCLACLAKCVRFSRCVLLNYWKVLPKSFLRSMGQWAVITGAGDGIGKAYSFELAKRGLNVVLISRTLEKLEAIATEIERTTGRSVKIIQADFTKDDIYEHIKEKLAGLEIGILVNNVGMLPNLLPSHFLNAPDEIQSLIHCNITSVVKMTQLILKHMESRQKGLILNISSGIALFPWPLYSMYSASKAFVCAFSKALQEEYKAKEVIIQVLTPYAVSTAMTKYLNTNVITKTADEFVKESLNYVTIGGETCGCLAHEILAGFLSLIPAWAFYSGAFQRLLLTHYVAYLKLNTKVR

[37] = target: T2, 17-beta-hydroxysteroid dehydrogenase type 1 (Homo sapiens, UniProt P14061); assay: Inhibition of human 17beta-HSD1 by HPLC assay
T2 sequence (P14061 whole entry): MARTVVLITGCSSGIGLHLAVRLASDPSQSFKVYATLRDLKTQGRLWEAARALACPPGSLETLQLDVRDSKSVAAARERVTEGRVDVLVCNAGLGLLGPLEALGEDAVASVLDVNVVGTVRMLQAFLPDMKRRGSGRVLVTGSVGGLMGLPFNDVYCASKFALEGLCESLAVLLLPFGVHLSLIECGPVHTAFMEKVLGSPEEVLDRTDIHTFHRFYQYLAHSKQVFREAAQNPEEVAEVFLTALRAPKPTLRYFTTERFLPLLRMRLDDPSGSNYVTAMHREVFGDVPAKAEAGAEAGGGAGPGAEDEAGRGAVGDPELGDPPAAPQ

[38] = target: T3, 11-beta-hydroxysteroid dehydrogenase type 2 (Homo sapiens, UniProt P80365); assay: Inhibition of human 11beta-HSD2 by HTRF assay
T3 sequence (P80365 whole entry): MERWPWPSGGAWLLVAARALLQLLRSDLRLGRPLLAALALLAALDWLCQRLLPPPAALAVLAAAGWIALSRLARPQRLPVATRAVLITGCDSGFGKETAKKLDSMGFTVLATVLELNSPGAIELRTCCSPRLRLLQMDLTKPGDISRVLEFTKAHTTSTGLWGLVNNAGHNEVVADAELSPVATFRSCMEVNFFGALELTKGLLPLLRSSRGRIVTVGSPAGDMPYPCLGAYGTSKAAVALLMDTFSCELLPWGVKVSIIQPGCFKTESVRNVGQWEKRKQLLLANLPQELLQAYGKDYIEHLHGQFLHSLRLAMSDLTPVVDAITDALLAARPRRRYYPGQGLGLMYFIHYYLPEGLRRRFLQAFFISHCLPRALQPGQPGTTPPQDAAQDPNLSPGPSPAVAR

[39] = target: T4, 11-beta-hydroxysteroid dehydrogenase 1 (Homo sapiens, UniProt P28845); assay: Inhibition of human 11beta-HSD1 by HPLC assay
[40] = Lipophilicity, log D at pH 7.4; assay type: physicochemical; details: buffer
[41] = (§1) Oral bioavailability in Han Wistar rat at 7.4 to 14.7 umol/kg; assay type: ADME, organism-based; details: Han Wistar, in vivo
[42] = target: 11-beta-hydroxysteroid dehydrogenase 1 (Mus musculus, UniProt P50172); assay: Inhibition of mouse 11beta-HSD1 by HTRF assay
[43] = target: T4, 11-beta-hydroxysteroid dehydrogenase 1; assay: Inhibition of human 11beta-HSD1 by HTRF assay
[44] = target: Corticosteroid 11-beta-dehydrogenase isozyme 1 (Mus musculus) (UniProt P50172); assay: Inhibition of 11beta-HSD1 in po dosed mouse liver assessed as target engagement; parameters: scale not given: the % may be the effect or the level left
[45] = system: Rattus norvegicus; assay: as §1; assay type: ADME, organism-based; details: in vivo
[46] = system: Rattus norvegicus; assay: Inhibition of 11beta-HSD1 in po dosed Han Wistar rat epididymal adipose tissue assessed as conversion of [3H]cortisone to [3H]cortisol; assay type: functional, organism-based
[47] = Oral bioavailability in Han Wistar rat at 11.7 umol/kg; assay type: ADME, organism-based; details: in vivo
[48] = AUC in Han Wistar rat at 11.7 umol/kg, po; assay type: ADME, organism-based; details: plasma
[49] = Volume of distribution at steady state in female beagle dog at 1 umol/kg, iv; assay type: ADME, organism-based, Canis lupus familiaris; details: in vivo, read-out: Vdss
[50] = Volume of distribution at steady state in male beagle dog at 1 umol/kg, iv; assay type: ADME, organism-based, Canis lupus familiaris; details: in vivo, read-out: Vdss
[51] = Half life in female beagle dog at 1 umol/kg, iv; assay type: ADME, organism-based, Canis lupus familiaris; details: in vivo
[52] = Half life in male beagle dog at 1 umol/kg, iv; assay type: ADME, organism-based, Canis lupus familiaris; details: in vivo
[53] = Clearance in male beagle dog at 1 umol/kg, iv; assay type: ADME, organism-based, Canis lupus familiaris; details: in vivo
[54] = Clearance in female beagle dog at 1 umol/kg, iv; assay type: ADME, organism-based, Canis lupus familiaris; details: in vivo

T4 sequence (P28845 whole entry): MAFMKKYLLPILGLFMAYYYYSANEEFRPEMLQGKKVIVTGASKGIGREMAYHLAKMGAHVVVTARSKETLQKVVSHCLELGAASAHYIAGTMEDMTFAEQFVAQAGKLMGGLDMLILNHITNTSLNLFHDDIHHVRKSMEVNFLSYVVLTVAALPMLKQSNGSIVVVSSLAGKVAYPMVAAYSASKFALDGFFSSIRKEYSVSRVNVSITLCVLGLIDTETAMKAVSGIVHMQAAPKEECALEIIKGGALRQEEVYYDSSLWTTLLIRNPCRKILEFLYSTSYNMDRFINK
11-beta-hydroxysteroid dehydrogenase 1 (Mus musculus, UniProt P50172), sequence (P50172 whole entry): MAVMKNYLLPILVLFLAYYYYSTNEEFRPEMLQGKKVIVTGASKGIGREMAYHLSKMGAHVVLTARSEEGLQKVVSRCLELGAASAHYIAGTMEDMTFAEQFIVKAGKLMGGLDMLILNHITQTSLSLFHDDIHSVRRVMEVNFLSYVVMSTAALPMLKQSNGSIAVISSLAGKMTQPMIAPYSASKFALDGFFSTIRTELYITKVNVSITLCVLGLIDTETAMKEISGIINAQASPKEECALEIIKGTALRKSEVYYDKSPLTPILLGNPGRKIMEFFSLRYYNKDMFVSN

Compound: O=C(N[C@H]1C2CC3CC1C[C@](O)(C3)C2)c1cnc(N[C@H]2CCOC2)nc1C1CCCC1
- Vd [1]: 0.6 L/kg
- Vd [2]: 0.7 L/kg
- half-life [3]: 36 min
- half-life [4]: 36 min
- clearance [5]: 14 mL/min/kg
- clearance [6]: 17 mL/min/kg
- bioavailability [7]: 61%
- AUC [8]: 5.6 µM·h
- Activity [9]: Active
- Activity [10]: inactive
- Activity [11]: Active
- Activity [12]: Active
- pIC50 [13]: 7.30
- fraction unbound [14]: 0.38
- hepatocyte CLint [15]: < 2 µL/min/1e6 cells
- hepatocyte CLint [16]: 6.7 µL/min/1e6 cells
- hepatocyte CLint [17]: 6.7 µL/min/1e6 cells
- hepatocyte CLint [18]: 9.1 µL/min/1e6 cells
- hepatocyte CLint [19]: < 2 µL/min/1e6 cells
- fraction unbound [20]: 0.38
- fraction unbound [21]: 0.35
- fraction unbound [22]: 0.38
- bioavailability [23]: 30%
- fraction unbound [24]: 0.3
- bioavailability [25]: 15%
- AUC [26]: 0.42 µM·h
- bioavailability [27]: 34%
- AUC [28]: 0.19 µM·h
- AUC [29]: 1.5 µM·h
- Vd [30]: 2.4 L/kg
- Vd [31]: 1 L/kg
- half-life [32]: 144 min
- half-life [33]: 42 min
- clearance [34]: 9 mL/min/kg
- clearance [35]: 57 mL/min/kg
- inhibition [36]: 7%
- pIC50 [37]: < 4.00
- pIC50 [38]: < 4.52
- pIC50 [39]: 8.80
- logD [40]: 2.4
- bioavailability [41]: 61%
- pIC50 [42]: 7.49
- pIC50 [43]: 7.68
- Activity [44]: >90%

Compound: CC(C)(CO)Nc1ncc(C(=O)N[C@H]2C3CC4CC2C[C@](O)(C4)C3)c(OC2CCC2)n1
- logD [40]: 3.1
- F [45]: 161%
- pIC50 [42]: 7.70

Compound: O=C(N[C@H]1C2CC3CC1C[C@](O)(C3)C2)c1cnc(NC2CCOCC2)nc1C1CCC1
- pIC50 [46]: 7.06
- pIC50 [13]: 7.52
- fraction unbound [14]: 0.52
- hepatocyte CLint [15]: < 2 µL/min/1e6 cells
- hepatocyte CLint [16]: < 2 µL/min/1e6 cells
- hepatocyte CLint [17]: < 2 µL/min/1e6 cells
- hepatocyte CLint [18]: 3.6 µL/min/1e6 cells
- hepatocyte CLint [19]: < 2 µL/min/1e6 cells
- fraction unbound [20]: > 0.66
- fraction unbound [21]: 0.55
- fraction unbound [22]: > 0.66
- bioavailability [23]: 23%
- fraction unbound [24]: > 0.5
- bioavailability [25]: 34%
- bioavailability [47]: 100%
- AUC [26]: 0.16 µM·h
- bioavailability [27]: 57%
- AUC [48]: 10.4 µM·h
- AUC [28]: 0.38 µM·h
- Vd [49]: 1.6 L/kg
- AUC [29]: 2.7 µM·h
- Vd [50]: 1.1 L/kg
- Vd [30]: 1.1 L/kg
- Vd [31]: 0.9 L/kg
- half-life [51]: 42 min
- half-life [32]: 36 min
- half-life [52]: 48 min
- half-life [33]: 24 min
- clearance [53]: 19 mL/min/kg
- clearance [54]: 29 mL/min/kg
- clearance [34]: 32 mL/min/kg
- clearance [35]: 42 mL/min/kg
- inhibition [36]: 4%
- pIC50 [37]: < 4.46
- pIC50 [38]: < 4.52
- pIC50 [39]: 7.85
- logD [40]: 2.1
- bioavailability [41]: 100%
- pIC50 [42]: 7.57
- pIC50 [43]: 7.55
